Measured values published in patent US20230265151A1, “GIP/GLP1 CO-AGONIST COMPOUNDS” (priority 2020, published 2023).
Where two headings read alike, the source gives them in different places. *1 amine or outer side, *2 acyl side, *3 side chain or, on linkers, in order; H or OH if unused. Where a SMILES comes first, the peptide text is derived from it. Side-chain parts run from the residue outwards. [ ]: non-standard residue; d: D form. The star is where a group is joined. Decanoyl(10-(4-HOOC-PhO)) = O=C(O)c1ccc(OCCCCCCCCCC(=O)*)cc1; αMePhe(2-F) = C[C@](N)(Cc1ccccc1F)C(=O)O; γGlu = O=C(O)[C@H](CCC(=O)[*:2])N[*:1]; αMeY = C[C@](N)(Cc1ccc(O)cc1)C(=O)O; αMeL = CC(C)C[C@](C)(N)C(=O)O; Orn = NCCC[C@H](N)C(=O)O; AEEA = NCCOCCOCC(=O)O; Aib = CC(C)(N)C(=O)O

Assays:
Type in all cases: cell-based
hGIPR = target: T1, hGIPR (Homo sapiens, UniProt P48546); assay: Functional cAMP formation (HTRF) in HEK-293 clonal cells expressing hGIPR, 0.1% bovine casein, without or with 1.0% human serum albumin; conditions: for Emax: percent of maximal response to GIP(1-42)NH2; for EC50: hGIPR EC50, nM (SEM, n), 37° C., geometric mean
T1 construct: expressed in transfected cells
T1 sequence (P48546 22-466): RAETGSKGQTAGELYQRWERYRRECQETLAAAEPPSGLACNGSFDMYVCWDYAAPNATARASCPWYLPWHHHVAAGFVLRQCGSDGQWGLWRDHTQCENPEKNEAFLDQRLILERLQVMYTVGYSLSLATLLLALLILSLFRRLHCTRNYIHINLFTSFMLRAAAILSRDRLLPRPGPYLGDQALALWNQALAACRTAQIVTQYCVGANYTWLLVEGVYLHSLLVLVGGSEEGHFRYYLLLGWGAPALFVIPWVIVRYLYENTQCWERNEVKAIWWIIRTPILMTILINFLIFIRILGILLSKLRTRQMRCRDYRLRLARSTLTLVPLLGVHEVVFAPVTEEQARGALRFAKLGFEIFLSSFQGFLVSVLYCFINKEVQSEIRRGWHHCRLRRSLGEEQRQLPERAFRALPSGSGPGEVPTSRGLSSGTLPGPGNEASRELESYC
Summary of the method: (§1)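 Cells were stimulated with peptide for 30 min at 37° C, then lysed in buffer carrying cAMP-d2 and anti-cAMP Eu3+-cryptate for a competitive HTRF read after at least 60 min at room temperature. The 665/620 nm ratio was converted to nM cAMP against a standard curve.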

hGCGR = target: T2, hGCGR (Homo sapiens, UniProt P47871); assay: Functional cAMP formation (HTRF) in HEK-293 clonal cells expressing hGCGR, 0.1% bovine casein, without or with 1.0% human serum albumin; conditions: hGCGR EC50, nM (SEM, n), 37° C., geometric mean
T2 construct: expressed in transfected cells
T2 sequence (P47871 26-477): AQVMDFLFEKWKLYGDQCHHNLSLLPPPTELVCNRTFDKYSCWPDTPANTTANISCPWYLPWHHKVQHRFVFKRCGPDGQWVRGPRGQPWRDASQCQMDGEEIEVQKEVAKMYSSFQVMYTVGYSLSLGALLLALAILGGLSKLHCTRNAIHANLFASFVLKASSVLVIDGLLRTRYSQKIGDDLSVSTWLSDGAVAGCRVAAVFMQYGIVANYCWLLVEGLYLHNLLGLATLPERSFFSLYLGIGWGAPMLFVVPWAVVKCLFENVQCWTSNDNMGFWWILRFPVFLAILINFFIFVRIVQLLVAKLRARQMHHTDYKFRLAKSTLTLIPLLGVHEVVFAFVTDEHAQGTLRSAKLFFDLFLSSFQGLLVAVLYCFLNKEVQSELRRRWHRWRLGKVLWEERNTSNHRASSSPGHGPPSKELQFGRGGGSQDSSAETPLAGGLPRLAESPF
Summary of the method: as §1

hGLP-1R = hGLP-1R (Homo sapiens, UniProt P43220); assay: Functional cAMP formation (HTRF) in HEK-293 clonal cells expressing hGLP-1R, 0.1% bovine casein, without or with 1.0% human serum albumin; parameters: expressed in transfected cells; conditions: for Emax: percent of maximal response to GLP-1(7-36)NH2; for EC50: hGLP-1R EC50, nM (SEM, n), 37° C., geometric mean
Chain of hGLP-1R (P43220 24-463): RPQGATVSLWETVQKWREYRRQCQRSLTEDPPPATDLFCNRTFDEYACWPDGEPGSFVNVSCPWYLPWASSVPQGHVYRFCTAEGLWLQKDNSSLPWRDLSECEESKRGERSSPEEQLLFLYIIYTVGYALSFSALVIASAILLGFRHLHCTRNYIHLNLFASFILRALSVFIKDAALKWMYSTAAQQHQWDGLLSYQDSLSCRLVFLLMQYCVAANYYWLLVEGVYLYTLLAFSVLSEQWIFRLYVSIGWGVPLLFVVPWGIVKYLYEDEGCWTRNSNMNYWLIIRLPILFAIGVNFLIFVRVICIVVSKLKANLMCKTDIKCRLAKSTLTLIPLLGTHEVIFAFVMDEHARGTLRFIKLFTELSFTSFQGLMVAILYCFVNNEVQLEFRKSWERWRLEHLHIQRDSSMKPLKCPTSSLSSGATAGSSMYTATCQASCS
Summary of the method: as §1

[1] = HEK293, read-out: hGIPR Emax, % ± SEM, 0.1% bovine casein and 1.0% human serum albumin, 37° C.
[2] = cAMP, 0.1% bovine casein (no human serum albumin)
[3] = 0.1% bovine casein and 1.0% human serum albumin
[4] = HEK293, read-out: hGLP-1R Emax, % ± SEM, 0.1% bovine casein and 1.0% human serum albumin, 37° C.
[5] = HEK293, read-out: hGLP-1R Emax, % ± SEM, cAMP, 37° C., 0.1% bovine casein, arithmetic mean
[6] = HEK293, read-out: hGIPR Emax, % ± SEM, cAMP, 37° C., 0.1% bovine casein, arithmetic mean

Structure (SMILES)	Emax (hGIPR; [1]) [%]	EC50 (hGIPR; [2]) [nM]	EC50 (hGCGR; [3]) [nM]	EC50 (hGCGR; [2]) [nM]	Emax (hGLP-1R; [4]) [%]	Emax (hGLP-1R; [5]) [%]	EC50 (hGLP-1R; [3]) [nM]	EC50 (hGLP-1R; [2]) [nM]	Emax (hGIPR; [6]) [%]	EC50 (hGIPR; [3]) [nM]
CC[C@H](C)[C@H](NC(=O)[C@H](CCCN)NC(=O)[C@H](CC(=O)O)NC(=O)[C@H](CC(C)C)NC(=O)[C@](C)(CC(C)C)NC(=O)[C@@H](NC(=O)[C@H](CO)NC(=O)[C@H](Cc1ccc(OC)cc1)NC(=O)[C@H](CC(=O)O)NC(=O)[C@H](CO)NC(=O)[C@@H](NC(=O)[C@](C)(Cc1ccccc1F)NC(=O)[C@@H](NC(=O)CNC(=O)[C@H](CCC(=O)O)NC(=O)C(C)(C)NC(=O)[C@@H](N)Cc1ccc(O)cc1)[C@@H](C)O)[C@@H](C)O)[C@@H](C)CC)C(=O)N[C@@H](C)C(=O)N[C@@H](CCC(N)=O)C(=O)NC(C)(C)C(=O)N[C@@H](CCC(=O)O)C(=O)N[C@@H](Cc1ccccc1)C(=O)N[C@H](C(=O)N[C@@H](CCCCNC(=O)COCCOCCNC(=O)COCCOCCNC(=O)CC[C@H](NC(=O)CCCCCCCCCOc1ccc(C(=O)O)cc1)C(=O)O)C(=O)N[C@@](C)(Cc1ccc(O)cc1)C(=O)N[C@@H](CC(C)C)C(=O)N[C@H](C(=O)N[C@@H](CCCCNC(=O)COCCOCCNC(=O)COCCOCCNC(=O)CC[C@H](NC(=O)CCCCCCCCCOc1ccc(C(=O)O)cc1)C(=O)O)C(=O)NCC(=O)NCC(=O)N1CCC[C@H]1C(=O)N[C@@H](CO)C(=O)N[C@@H](CO)C(=O)NCC(=O)N[C@@H](C)C(=O)N1CCC[C@H]1C(=O)N1CCC[C@H]1C(=O)N1CCC[C@H]1C(=O)N[C@@H](CO)C(N)=O)[C@@H](C)CC)[C@@H](C)CC [Example 279] (H-Y[Aib]EGT[αMePhe(2-F)]TSDY(Me)SI[αMeL]LD[Orn]IAQ[Aib]EFIK([AEEA-AEEA-γGlu-Decanoyl(10-(4-HOOC-PhO))])[αMeY]LIK([AEEA-AEEA-γGlu-Decanoyl(10-(4-HOOC-PhO))])GGPSSGAPPPS-NH2)	88.6	0.0305	> 9950	> 9950	114	112	36.6	0.406	–	–
CC[C@H](C)[C@H](NC(=O)[C@H](CCCN)NC(=O)[C@H](CC(=O)O)NC(=O)[C@H](CC(C)C)NC(=O)[C@](C)(CC(C)C)NC(=O)[C@@H](NC(=O)[C@H](CO)NC(=O)[C@H](Cc1ccc(OC)cc1)NC(=O)[C@H](CC(=O)O)NC(=O)[C@H](CO)NC(=O)[C@@H](NC(=O)[C@](C)(Cc1ccccc1F)NC(=O)[C@@H](NC(=O)CNC(=O)[C@H](CCC(=O)O)NC(=O)C(C)(C)NC(=O)[C@@H](N)Cc1ccc(O)cc1)[C@@H](C)O)[C@@H](C)O)[C@@H](C)CC)C(=O)N[C@@H](C)C(=O)N[C@@H](CCC(N)=O)C(=O)NC(C)(C)C(=O)N[C@@H](CCCCNC(=O)COCCOCCNC(=O)COCCOCCNC(=O)CC[C@H](NC(=O)CCCCCCCCCOc1ccc(C(=O)O)cc1)C(=O)O)C(=O)N[C@@H](Cc1ccccc1)C(=O)N[C@H](C(=O)N[C@H](CCC(=O)O)C(=O)N[C@@](C)(Cc1ccc(O)cc1)C(=O)N[C@@H](CC(C)C)C(=O)N[C@H](C(=O)N[C@@H](CCCCNC(=O)COCCOCCNC(=O)COCCOCCNC(=O)CC[C@H](NC(=O)CCCCCCCCCOc1ccc(C(=O)O)cc1)C(=O)O)C(=O)NCC(=O)NCC(=O)N1CCC[C@H]1C(=O)N[C@@H](CO)C(=O)N[C@@H](CO)C(=O)NCC(=O)N[C@@H](C)C(=O)N1CCC[C@H]1C(=O)N1CCC[C@H]1C(=O)N1CCC[C@H]1C(=O)N[C@@H](CO)C(N)=O)[C@@H](C)CC)[C@@H](C)CC [Example 280]	88.5	0.0229	> 9950	> 9950	105	–	–	0.346	105	4.84
CC[C@H](C)[C@H](NC(=O)[C@H](CC(C)C)NC(=O)[C@](C)(Cc1ccc(O)cc1)NC(=O)[C@@H](CCC(=O)O)NC(=O)[C@@H](NC(=O)[C@H](Cc1ccccc1)NC(=O)[C@H](CCCCNC(=O)COCCOCCNC(=O)COCCOCCNC(=O)CC[C@H](NC(=O)CCCCCCCCCOc1ccc(C(=O)O)cc1)C(=O)O)NC(=O)C(C)(C)NC(=O)[C@H](CCC(N)=O)NC(=O)[C@H](C)NC(=O)[C@H](CCCCNC(=O)COCCOCCNC(=O)COCCOCCNC(=O)CC[C@H](NC(=O)CCCCCCCCCOc1ccc(C(=O)O)cc1)C(=O)O)NC(=O)[C@H](CCCN)NC(=O)[C@H](CC(=O)O)NC(=O)[C@H](CC(C)C)NC(=O)[C@](C)(CC(C)C)NC(=O)[C@@H](NC(=O)[C@H](CO)NC(=O)[C@H](Cc1ccc2ccccc2c1)NC(=O)[C@H](CC(=O)O)NC(=O)[C@H](CO)NC(=O)[C@@H](NC(=O)[C@](C)(Cc1ccccc1F)NC(=O)[C@@H](NC(=O)CNC(=O)[C@H](CCC(=O)O)NC(=O)C(C)(C)NC(=O)[C@@H](N)Cc1ccc(O)cc1)[C@@H](C)O)[C@@H](C)O)[C@@H](C)CC)[C@@H](C)CC)C(=O)N[C@@H](CCC(=O)O)C(=O)NCC(=O)NCC(=O)N1CCC[C@H]1C(=O)N[C@@H](CO)C(=O)N[C@@H](CO)C(=O)NCC(=O)N[C@@H](C)C(=O)N1CCC[C@H]1C(=O)N1CCC[C@H]1C(=O)N1CCC[C@H]1C(=O)N[C@@H](CO)C(N)=O [Example 281]	97.9	0.0187	> 9950	> 9950	91.7	–	–	0.252	110	1.87
CC[C@H](C)[C@H](NC(=O)[C@H](CCCN)NC(=O)[C@H](CC(=O)O)NC(=O)[C@H](CC(C)C)NC(=O)[C@](C)(CC(C)C)NC(=O)[C@@H](NC(=O)[C@H](CO)NC(=O)[C@H](Cc1ccc2ccccc2c1)NC(=O)[C@H](CC(=O)O)NC(=O)[C@H](CO)NC(=O)[C@@H](NC(=O)[C@](C)(Cc1ccccc1F)NC(=O)[C@@H](NC(=O)CNC(=O)[C@H](CCC(=O)O)NC(=O)C(C)(C)NC(=O)[C@@H](N)Cc1ccc(O)cc1)[C@@H](C)O)[C@@H](C)O)[C@@H](C)CC)C(=O)N[C@@H](C)C(=O)N[C@@H](CCC(N)=O)C(=O)NC(C)(C)C(=O)N[C@@H](CCC(=O)O)C(=O)N[C@@H](Cc1ccccc1)C(=O)N[C@H](C(=O)N[C@@H](CCCCNC(=O)COCCOCCNC(=O)COCCOCCNC(=O)CC[C@H](NC(=O)CCCCCCCCCOc1ccc(C(=O)O)cc1)C(=O)O)C(=O)N[C@@](C)(Cc1ccc(O)cc1)C(=O)N[C@@H](CC(C)C)C(=O)N[C@H](C(=O)N[C@@H](CCCCNC(=O)COCCOCCNC(=O)COCCOCCNC(=O)CC[C@H](NC(=O)CCCCCCCCCOc1ccc(C(=O)O)cc1)C(=O)O)C(=O)NCC(=O)NCC(=O)N1CCC[C@H]1C(=O)N[C@@H](CO)C(=O)N[C@@H](CO)C(=O)NCC(=O)N[C@@H](C)C(=O)N1CCC[C@H]1C(=O)N1CCC[C@H]1C(=O)N1CCC[C@H]1C(=O)N[C@@H](CO)C(N)=O)[C@@H](C)CC)[C@@H](C)CC [Example 283]	114	–	> 9950	> 9950	96.6	–	–	1.14	–	–
CC[C@H](C)[C@H](NC(=O)[C@H](CCCN)NC(=O)[C@H](CC(=O)O)NC(=O)[C@H](CC(C)C)NC(=O)[C@](C)(CC(C)C)NC(=O)[C@@H](NC(=O)[C@H](CO)NC(=O)[C@H](Cc1ccc2ccccc2c1)NC(=O)[C@H](CC(=O)O)NC(=O)[C@H](CO)NC(=O)[C@@H](NC(=O)[C@](C)(Cc1ccccc1F)NC(=O)[C@@H](NC(=O)CNC(=O)[C@H](CCC(=O)O)NC(=O)C(C)(C)NC(=O)[C@@H](N)Cc1ccc(O)cc1)[C@@H](C)O)[C@@H](C)O)[C@@H](C)CC)C(=O)N[C@@H](C)C(=O)N[C@@H](CCC(N)=O)C(=O)NC(C)(C)C(=O)N[C@@H](CCCCNC(=O)COCCOCCNC(=O)COCCOCCNC(=O)CC[C@H](NC(=O)CCCCCCCCCOc1ccc(C(=O)O)cc1)C(=O)O)C(=O)N[C@@H](Cc1ccccc1)C(=O)N[C@H](C(=O)N[C@H](CCC(=O)O)C(=O)N[C@@](C)(Cc1ccc(O)cc1)C(=O)N[C@@H](CC(C)C)C(=O)N[C@H](C(=O)N[C@@H](CCCCNC(=O)COCCOCCNC(=O)COCCOCCNC(=O)CC[C@H](NC(=O)CCCCCCCCCOc1ccc(C(=O)O)cc1)C(=O)O)C(=O)NCC(=O)NCC(=O)N1CCC[C@H]1C(=O)N[C@@H](CO)C(=O)N[C@@H](CO)C(=O)NCC(=O)N[C@@H](C)C(=O)N1CCC[C@H]1C(=O)N1CCC[C@H]1C(=O)N1CCC[C@H]1C(=O)N[C@@H](CO)C(N)=O)[C@@H](C)CC)[C@@H](C)CC [Example 284]	–	0.0389	> 9950	> 9950	112	110	–	0.505	98.3	–
